Experimental data reported in patent US5159069A, “Sulfated tannins and their salts” (Yamanouchi Pharmaceutical Co., Ltd., priority 1988, dated 1992).

Tests used:
[1] = tested on: avian myeloblastosis virus RTase; assay type: biochemical; conditions: 37° C., 40 minutes
Protocol: According to the method disclosed in Journal of Biological Chemistry, 1987, 262, p. 2187, the RTase inhibitory effect of the compounds of this invention is determined as follows:
More specifically, the compound of the present invention was added, in various amount, to a reaction solution which comprised 80 mM of Tris buffer solution (pH 8), 6 mM of magnesium chloride, 80 mM of potassium chloride, 10 mM of dithiothreitol, 20 μg/ml of polyadenylic acid, 0.02 μg/ml of oligodeoxy thymidine, 20 μM of tritium-labeled deoxythymidine-triphosphate and avian myeloblastosis virus RTase so that the total volume of the resultant solution was equal to 100 μl. After the reaction solution was incubated at 37° C. for 40 minutes, 100 μl of an ice-cooled 10% trichloroacetic acid solution was added to the solution to stop the reaction.
The reaction solution was filtered through a glass filter (Whatmann GF/C) and washed with a 10% trichloroacetic acid solution and then with ethanol. Thereafter, the glass filter was dried and examined by liquid scintillation counter.

[2] = tested on: HTLV-IIIB-infected MT-4 cells; assay: Inhibitory effect of drugs on HIV-induced cell damage (trypan blue dye exclusion); assay type: cell-based
Protocol: In this experiment, there were used human MT4 cells, a human T4-positive cell line carrying adult T-cell leukemia causative virus, HTLV-1 (Gann Monogr.,1982, Vol. 28, pp. 219 -228) and HTLF-IIIB which is one of the HIV strains.
(§1) HTLV-IIIB-infected MT-4 cells were inoculated on RPMI 1640 culture mediums containing 10% heat-inactivated fetal calf serum, 100 IU/ml of penicillin and 100 μg/ml of streptomycin, to which tannic acid-S had been added in a variety of concentrations, in a cell number of 300,000/ml and were cultured at 37° C. in a carbon dioxide incubator. After the cultivation for three days, one half of the culture medium was withdrawn and the survival rate and the viable count (X 10^4 /ml) of the MT-4 cells in the medium were determined by a trypan blue dye exclusion test. To the remaining cultured cells, an equivalent amount of RPMI 1640 culture medium each containing the same amount of the drugs were added, the cultivation was further continued for additional 3 days and likewise the survival rate and the viable count were determined.

[3] = tested on: HTLV-IIIB-infected MT-4 cells; assay: Inhibitory effect on expression of HIV-specific antigen (immunofluorescence); assay type: cell-based
Protocol: After drying the cells cultured in Experiment 1 on a slide glass, they were fixed with methanol for 3 minutes and treated with human anti-HIV-III positive serum (IF antibody titer×4096) which was diluted 1/1,000 time at 37° C. for 30 minutes. Thereafter, it was washed with phosphate-buffered saline (PBS) for 15 minutes and treated with an anti-human IgG conjugated with fluorescein-isothiocyanate at 37° C. for 30 minutes. It was again washed with PBS and then the number of fluorescent cells, more specifically expressed HIV-specific virus antigen proteins were determined with a fluorescence microscope. "%" is a ratio of the number of fluorescent ray emitting cells to the number of total cells.

[4] = tested on: MOLT-4 and MOLT-4/HIV HTLV-IIIB cells; assay: Inhibitory effect on giant cell formation by mixed cultivation of MOLT-4 and MOLT-4/HIV HTLV-IIIB cells; assay type: cell-based, human; conditions: 24 hours co-culture, co-culture control 18.5%
Protocol: This experiment was performed by the recently developed method of Yamamoto et al. (see Yamamoto et al., Virology, 1988, 164, p. 542; and J. Clinical Microbiology, 1988, 26, p. 1229).
MOLT-4 cells which are HTLV-I negative human T cell strain, and MOLT-4/HIVHT LV II IB cells which are persistently HIV-infected cells are separately cultured in a RPMI 1640 culture medium supplemented with 10% fetal calf serum to a cell density of 5×10^5 /ml respectively, these were mixed in a ratio of 1:1 and the drug was added thereto.
The mixed culture medium was cultured at 37° C. for 24 hours in a carbon dioxide incubator and the distribution of cell size was determined by a Cell Multisizer (available from Coulter Electronics, Ltd., Luton, England).
In Table IX, the rate of cell having a size of not less than 20 μm is expressed by "%". If MOLT-4 cells and MOLT-4/HIVHT LV II IB cells are separately cultured, the rates are 4.5 and 3.3% respectively, but it increased up to 18.5% when they are co-cultured. When tannic acid-S was added to the mixed culture medium in a concentration of 5 μg/ml, the rate was reduced to 8.2%.

[5] = tested on: HTLV-IIIB-non-infected MT-4 cells; assay: Toxicity: influence on the proliferation of T cells; assay type: cell-based, human
Protocol: as §1
As in Experiment 1, there was observed the influence of the compounds (drugs) of the present invention on the proliferation of HTLV-IIIB-non-infected MT-4 cells. The results thus observed are listed on the following Tables XI to XIV. The numerical values in these Tables mean viable count (X 10^4 /ml) and those in parentheses mean survival rates.

[6] = Stability of powder and aqueous solution; conditions: powder state and aqueous solution
[7] = drug 50 μg/ml, culture period 3 days
[8] = drug 50 μg/ml, culture period 6 days
[9] = drug 100 μg/ml, culture period 3 days
[10] = drug 100 μg/ml, culture period 6 days
[11] = drug 200 μg/ml, culture period 3 days
[12] = drug 200 μg/ml, culture period 6 days
[13] = drug 400 μg/ml, culture period 3 days
[14] = drug 400 μg/ml, culture period 6 days

In the case of “sodium salt of sulfuric acid ester of 1,2,3,4,6-penta-O-galloyl-β-D-glucose [Example 9]”, the “RTase Inhibitory Effect (IC50)” value [1] is reported as under 0.096 µg/mL.
In the case of “sodium salt of sulfuric acid ester of 1,2,3,4,6-penta-O-galloyl-β-D-glucose [Example 7]”, the “RTase Inhibitory Effect (IC50)” value [1] is reported as 0.45 µg/mL.
Work on “sodium salt of ellagic acid sulfate [Ellagic acid-S]” yielded a Viable count [2, 7] of 740000 mL⁻¹, a survival rate [2, 7] of 82% and a Viable count [2, 8] of 230000 mL⁻¹. For the same substance, the survival rate [2, 8] was 43%, the Viable count [2, 9] was 810000 mL⁻¹ and the survival rate [2, 9] was 84%. The Viable count [2, 10] was 1.03e+06 mL⁻¹, the survival rate [2, 10] was 78% and the Viable count [2, 11] was 830000 mL⁻¹. For the same substance, the survival rate [2, 11] was 87%, the Viable count [2, 12] was 860000 mL⁻¹ and the survival rate [2, 12] was 83%. It also gave a Viable count [2, 13] of 730000 mL⁻¹, a survival rate [2, 13] of 82% and a Viable count [2, 14] of 470000 mL⁻¹. The survival rate [2, 14] was 89%, the “Ratio of fluorescent ray emitting cells to total cells” value (from here on “Ratio”) [3, 7] was under 1% and the “Ratio” value [3, 8] was 90%. For the same substance, the “Ratio” value [3, 9] was under 1%, the “Ratio” value [3, 10] was 6.4% and the “Ratio” value [3, 11] was under 1%. The “Ratio” value [3, 12] was under 1%, the “Ratio” value [3, 13] was 0% and the “Ratio” value [3, 14] was under 1%. For the same substance, the “Rate of Giant Cell (cells of size not less than 20 μm)” value ([4]; drug 25 μg/ml) was 15.1%, the “Rate of Giant Cell (cells of size not less than 20 μm)” value ([4]; drug 50 μg/ml) was 17.0% and the “Rate of Giant Cell (cells of size not less than 20 μm)” value ([4]; drug 100 μg/ml) was 13.0%. For the same substance, the “Rate of Giant Cell (cells of size not less than 20 μm)” value ([4]; drug 200 μg/ml) was 9.5%, the Viable count [5, 7] was 700000 mL⁻¹ and the survival rate [5, 7] was 84. The Viable count [5, 8] was 1.37e+06 mL⁻¹, the survival rate [5, 8] was 89 and the Viable count [5, 9] was 990000 mL⁻¹. For the same substance, the survival rate [5, 9] was 87, the Viable count [5, 10] was 1.09e+06 mL⁻¹ and the survival rate [5, 10] was 83. It also gave a Viable count [5, 11] of 990000 mL⁻¹, a survival rate [5, 11] of 83 and a Viable count [5, 12] of 1.04e+06 mL⁻¹. For the same substance, the survival rate [5, 12] was 85, the Viable count [5, 13] was 810000 mL⁻¹ and the survival rate [5, 13] was 84. It also gave a Viable count [5, 14] of 700000 mL⁻¹ and a survival rate [5, 14] of 82.
“sodium salt of sulfated (-)-epigallocathechin-3-gallate [Epigallocatechin gallate-S]” showed a Viable count [2, 7] of 830000 mL⁻¹, a survival rate [2, 7] of 85% and a Viable count [2, 8] of 1.3e+06 mL⁻¹. It also gave a survival rate [2, 8] of 92%, a Viable count [2, 9] of 840000 mL⁻¹ and a survival rate [2, 9] of 83%. It also gave a Viable count [2, 10] of 1.25e+06 mL⁻¹, a survival rate [2, 10] of 95% and a Viable count [2, 11] of 810000 mL⁻¹. The survival rate [2, 11] was 89%, the Viable count [2, 12] was 750000 mL⁻¹ and the survival rate [2, 12] was 87%. The Viable count [2, 13] was 720000 mL⁻¹, the survival rate [2, 13] was 82% and the Viable count [2, 14] was 500000 mL⁻¹. For the same substance, the survival rate [2, 14] was 86%, the “Ratio” value [3, 7] was under 1% and the “Ratio” value [3, 8] was under 1%. For the same substance, the “Ratio” value [3, 9] was under 1%, the “Ratio” value [3, 10] was under 1% and the “Ratio” value [3, 11] was under 1%. The “Ratio” value [3, 12] was under 1%, the “Ratio” value [3, 13] was under 1% and the “Ratio” value [3, 14] was under 1%. The “Rate of Giant Cell (cells of size not less than 20 μm)” value ([4]; drug 25 μg/ml) was 13.8%, the “Rate of Giant Cell (cells of size not less than 20 μm)” value ([4]; drug 50 μg/ml) was 17.5% and the “Rate of Giant Cell (cells of size not less than 20 μm)” value ([4]; drug 100 μg/ml) was 5.6%. For the same substance, the “Rate of Giant Cell (cells of size not less than 20 μm)” value ([4]; drug 200 μg/ml) was 0.4%, the Viable count [5, 7] was 1.06e+06 mL⁻¹ and the survival rate [5, 7] was 88. It also gave a Viable count [5, 8] of 400000 mL⁻¹, a survival rate [5, 8] of 92 and a Viable count [5, 9] of 1.14e+06 mL⁻¹. For the same substance, the survival rate [5, 9] was 85, the Viable count [5, 10] was 370000 mL⁻¹ and the survival rate [5, 10] was 91. The Viable count [5, 11] was 900000 mL⁻¹, the survival rate [5, 11] was 91 and the Viable count [5, 12] was 950000 mL⁻¹. It also gave a survival rate [5, 12] of 92, a Viable count [5, 13] of 960000 mL⁻¹ and a survival rate [5, 13] of 89. The Viable count [5, 14] was 530000 mL⁻¹, the survival rate [5, 14] was 95 and the Stability [6] was “stable in powder state and in the form of aqueous solutions”.
Work on “sodium salt of epicatechin sulfate [Epicatechin-S]” yielded a Viable count [2, 7] of 940000 mL⁻¹, a survival rate [2, 7] of 95% and a Viable count [2, 8] of 450000 mL⁻¹. The survival rate [2, 8] was 63%, the Viable count [2, 9] was 990000 mL⁻¹ and the survival rate [2, 9] was 87%. It also gave a Viable count [2, 10] of 1.1e+06 mL⁻¹, a survival rate [2, 10] of 92% and a Viable count [2, 11] of 890000 mL⁻¹. It also gave a survival rate [2, 11] of 86%, a Viable count [2, 12] of 1.22e+06 mL⁻¹ and a survival rate [2, 12] of 91%. It also gave a Viable count [2, 13] of 910000 mL⁻¹, a survival rate [2, 13] of 85% and a Viable count [2, 14] of 1.33e+06 mL⁻¹. The survival rate [2, 14] was 91%, the “Ratio” value [3, 7] was under 1% and the “Ratio” value [3, 8] was 90%. The “Ratio” value [3, 9] was under 1%, the “Ratio” value [3, 10] was under 1% and the “Ratio” value [3, 11] was under 1%. For the same substance, the “Ratio” value [3, 12] was under 1%, the “Ratio” value [3, 13] was under 1% and the “Ratio” value [3, 14] was under 1%. For the same substance, the “Rate of Giant Cell (cells of size not less than 20 μm)” value ([4]; drug 25 μg/ml) was 14.2%, the “Rate of Giant Cell (cells of size not less than 20 μm)” value ([4]; drug 50 μg/ml) was 14.0% and the “Rate of Giant Cell (cells of size not less than 20 μm)” value ([4]; drug 100 μg/ml) was 15.1%. The “Rate of Giant Cell (cells of size not less than 20 μm)” value ([4]; drug 200 μg/ml) was 13.9%, the Viable count [5, 7] was 1.14e+06 mL⁻¹ and the survival rate [5, 7] was 91. For the same substance, the Viable count [5, 8] was 1.38e+06 mL⁻¹, the survival rate [5, 8] was 85 and the Viable count [5, 9] was 1.1e+06 mL⁻¹. The survival rate [5, 9] was 86, the Viable count [5, 10] was 1.47e+06 mL⁻¹ and the survival rate [5, 10] was 93. It also gave a Viable count [5, 11] of 1.11e+06 mL⁻¹, a survival rate [5, 11] of 83 and a Viable count [5, 12] of 1.33e+06 mL⁻¹. The survival rate [5, 12] was 92, the Viable count [5, 13] was 1.18e+06 mL⁻¹ and the survival rate [5, 13] was 86. For the same substance, the Viable count [5, 14] was 1.37e+06 mL⁻¹ and the survival rate [5, 14] was 92.
With “sodium salt of sulfated 3,4,5- trigalloylquinic acid [Example 12]” the “RTase Inhibitory Effect (IC50)” value [1] was 9.2 µg/mL.
